For data set [1], the system named is Rat calvarial osteoblasts (RCO). The data set is described as follows: Alkaline phosphatase (ALP) assay, osteoblast differentiation. Conditions: 48 h, ALP activity. It is filed as cell-based. The procedure:
Calvaria from ten to twelve 1-2 day old rat pups were harvested, cleaned, and subjected to five sequential enzymatic digestions (0.1% diaspase and 0.1% collagenase I) of 10-15 min each. Cells from second to fifth digestion were collected, centrifuged, re-suspended and cultured in α-MEM containing 10% fetal bovine serum (FBS) and 1% penicillin/streptomycin (complete growth medium).
For ALP assay, RCO were trypsinized at 80% confluence and 2×10^3 cells/well were seeded onto 24-well plates. Cells were treated with different compounds isolated from extract & vehicle for 48 h in α-MEM supplemented with 10 mM β-glycerophosphate, […] and 1% penicillin/streptomycin (osteoblast differentiation medium).
At the end of the experiment, cells were washed with PBS, freeze fractured by placing the plates at −70° C. for 15 minutes followed by bringing to room temperature. ALP activity was measured by adding 100 µl p-nitrophenylphosphate buffer (2 mg/ml pNPP and 0.25 mM MgCl2 in 1 M diethanolamine). The absorption was measured at 405 nm with a microplate reader.

For a further data set, the system named is Runx2 mRNA. The data set is described as follows: qPCR osteogenic gene expression in rat calvarial osteoblast. It is filed as cell-based. The note with it: mRNA by qPCR, 48 h, active concentration of the compounds. A general note: Real-time PCR tracks product formation cycle by cycle.
The subject of data set [2] is type 1 collagen (col1) mRNA. The description is as above. It is filed as cell-based. Conditions: mRNA by qPCR, 48 h, active concentration of the compounds.
A further data set has as its system osteopenic mice. Put plainly: Osteopenic (OVX) mice model. In kind it is in vivo, balb/c mice. The procedure: 50 adult female balb/c mice (20±3 g, 10-12 months) underwent either sham surgery or ovariectomy (OVX). 6 weeks post-surgery, mice were scanned using μCT to ensure development of osteopenia. Treatments of 219/[…] (5 mg/kg), 219/[…] (1 mg/kg and 5 mg/kg), PTH (40 μg/kg) and vehicle (water) were given to OVX mice with osteopenia for another 6 weeks, and vehicle treatment was given to sham operated mice for the same duration (n=10/group). After 6 weeks all mice were sacrificed and bones were collected for further experiment. A high-resolution X-ray micro-computed tomographic (μCT) for two-dimensional (2D) and three-dimensional (3D) assessment of bones (excised bones) were carried out using a Sky Scan 1076 μCT scanner (SkyScan, Ltd, Kartuizersweg, Kontich, Belgium). Briefly, after scanning bone samples at a nominal resolution (pixels) of 9 μm, cross-sectional reconstruction was made using SkyScanNrecon software based on a modified Feldkamp algorithm. To analyze trabecular bone, region of interest was drawn on a total of 100 slices in the region of secondary spongiosa situated 1.5 mm away from the distal border of growth plate (GP) excluding primary spongiosa and cortical bone. Quantification was done by employing Batman software encumbered with trabecular (3D) and cortical (2D) bone programs. Using μCT scans, trabecular bone mineral density (BMD) of femurs was determined from the volume of interest made for cortical and trabecular region, respectively. […] Bone mechanical strength was examined by three-point bending of femur diaphysis with bone strength tester TK […] (Muromachi Kikai Co. Ltd, Tokyo, Japan).

The conditions of data set [3]: rat, in vivo, 250 mg/kg. The procedure: LC-MS/MS-API 4000 (Q-TRAP) triple quadrupole (AB-SCIEX, Toronto, Canada). The mass spectrometer was operated using an electrospray atmospheric pressure ionization source in positive ion mode.
a) Fingerprinting of 219/C002 Extract
Primary stock: 1 mg/mL in DMSO
Secondary stock: 50 ng/mL in Methanol
Continuous injection at 10 μL/min from secondary stock.
b) Fingerprinting of Blank Rat Plasma:
Blood was collected from overnight fasted rats and plasma was seperated. Plasma was precipitated with methanol (1:5 v/v), vortexed and centrifuged. The supernatant was collected and diluted with methanol (1:10 v/v). Continuous injection at 10 μL/min
c) Fingerprinting of 250 mg/kg (Oral) 219/C002 Treated Rat Plasma
Overnight fasted rats were administered 250 mg/kg 219/C002 extract suspension orally. Blood was collected after 45 min and plasma was separated. Plasma was precipitated with methanol (1:5 v/v), vortexed and centrifuged. The supernatant was collected and diluted with methanol (1:10 v/v). Continuous injection into the column at 10 μL/min.
The mass spectrometer [LC-MS/MS-API 4000 (Q-TRAP) triple quadrupole (AB-SCIEX, Toronto, Canada)] was used for the assay. Overnight fasted rats were administered 250 mg/kg extract suspension orally. Blood was collected after 45 min and plasma was separated. Plasma was precipitated with methanol, vortexed and centrifuged. The supernatant was collected and diluted with methanol. Continuous injection at 10 μL/min was done for extract, blank plasma and extract treated plasma.

The test system of a further data set is BMP2 mRNA. The data set is described as follows: qPCR osteogenic gene expression in rat calvarial osteoblast. It is filed as cell-based. Conditions: mRNA by qPCR, 48 h, active concentration of the compounds.
The subject of data set [4] is MP treated animals (adult male SD rats). Put plainly: MP induced secondary osteoporosis model. In kind it is in vivo, rat. The note with it: MP 5 mg/Kg s.c. 1 month, MP alone or MP+219/C002 250 mg/kg, 219/F005 100 mg/kg, 219/F005-F 50 mg/kg. The procedure:
50 adult male SD rats (260±20 g, 8-10 months) were divided into 5 groups. 5 mg/Kg methylprednisolone was administered subcutaneously for 1 month to induce osteoporosis. 219/C002 (250 mg/kg), 219/F005 (100 mg/Kg), 219/F005-F (50 mg/kg) treatment were given to check the efficacy of the extract and its different fraction along with methylprednisolone (n=10/group). After 1 month all rats were sacrificed and bones were collected for further experiment.
A high-resolution X-ray micro-computed tomographic (μCT) for two-dimensional (2D) and three-dimensional (3D) assessment of bones (excised bones) were carried out using a Sky Scan 1076 μCT scanner (SkyScan, Ltd, Kartuizersweg, Kontich, Belgium). Briefly, after scanning bone samples at a nominal resolution (pixels) of 9 μm, cross-sectional reconstruction was made using SkyScanNrecon software based on a modified Feldkamp algorithm. To analyze trabecular bone, region of interest was drawn on a total of 100 slices in the region of secondary spongiosa situated 1.5 mm away from the distal border of growth plate (GP) excluding primary spongiosa and cortical bone. Quantification was done by employing Batman software encumbered with trabecular (3D) and cortical (2D) bone programs. Using μCT scans, trabecular bone mineral density (BMD) of femurs was determined from the volume of interest made for cortical and trabecular region, respectively. For calibration, hydroxyl apatite phantom rods of 4 mm of diameter with known BMD (0.25 g/cm^3 and 0.75 g/cm^3) were employed.
Animals were kept in metabolic cages without food but with respective treatment and ad libitum water. Fasting serum samples were collected after 24 h. Serumprocollagen type I N-terminal propeptide (PINP) levels were determined by ELISA (MyBioSource, USA.), following the manufacturer's protocols.
Bone mechanical strength was examined by three-point bending of femur diaphysis with bone strength tester TK 252C (Muromachi Kikai Co. Ltd, Tokyo, Japan).

Each structure is given as a SMILES string.

In the case of `O=c1cc(-c2ccc(O)cc2)oc2cc(O)cc(O)c12` [219/K007, Apigenin], in data set [1], the osteogenic concentration result is recorded as “(1 μM)”. Besides, in the data set with Runx2 mRNA, the RunX2 expression entry is listed as “promoted”. For the same compound, the Col1 expression entry in data set [2] is on record as “promoted”. For the same compound, the “femur cortical strength (three-point bending)” value in the data set on osteopenic mice (6 weeks treatment) is recorded as “partially improve cortical strength”. Also, in data set [3], the “oral absorption: detection in plasma” value is “detected in extract and in extract-treated rat plasma but not in blank rat plasma”.
`O=c1cc(-c2ccc(O)cc2)oc2cc(O)ccc12` [219/K009, 7,4′-dihydroxy flavone]: the osteogenic concentration entry in data set [1] is “(10 nM)”. Moreover, the RunX2 expression result with Runx2 mRNA is on record as “promoted”. For the same compound, the Col1 expression result in data set [2] was “promoted”. Also, the “oral absorption: detection in plasma” value in data set [3] is “detected in extract and in extract-treated rat plasma but not in blank rat plasma”.
For `O=c1cc(-c2ccc(O)c(O)c2)oc2cc(O)cc(O)c12` [219/K010, Luteolin], the osteogenic concentration entry in data set [1] is “(1 nM)”.
On to `O=c1cc(-c2ccc(O)c(O)c2)oc2cc(O)ccc12` [219/K011, 7,3′,4′-trihydroxy-flavone], for which the osteogenic concentration result in data set [1] is given as “(10 nM)”. The RunX2 expression result with Runx2 mRNA is recorded as “promoted”. The Col1 expression result in data set [2] is reported as “promoted”. Moreover, in the data set with BMP2 mRNA, the BMP2 expression entry was “promoted BMP2 expression”.
For the compound `Cc1cc(O)c2c(c1)C(=O)c1cc(O)cc(O)c1C2=O` [219/K012, Emodin], the osteogenic concentration entry in data set [1] was “(10 nM)”.
Consider `O=c1cc(-c2ccc(O)cc2)oc2cc(O)c([C@@H]3O[C@H](CO)[C@@H](O)[C@H](O)[C@H]3O)c(O)c12` [219/K017, Isovitexin], for which the osteogenic concentration result in data set [1] is “(1 μM)”. In addition, the RunX2 expression result with Runx2 mRNA was “promoted”. In addition, the Col1 expression result in data set [2] is “promoted”. Moreover, the BMP2 expression entry with BMP2 mRNA was “promoted BMP2 expression”. The “femur trabecular microarchitecture (BMD, BV/TV)” value in the data set on osteopenic mice (5 mg/Kg, 6 weeks) is “completely restored femur trabecular microarchitecture”. In addition, in the data set on osteopenic mice (6 weeks treatment), the “bone strength of femur, higher than with 219/K007 (apigenin) treatment” value is given as 80%; the “femur cortical strength (three-point bending)” value was “restored femur cortical strength”; the “total bone volume of femur, higher than with 219/K007 (apigenin) treatment” value is listed as 72%. For the same compound, in data set [3], the “oral absorption: detection in plasma” value was “detected in extract and in extract-treated rat plasma but not in blank rat plasma”.
Regarding `C[C@H]1C[C@@H]2[C@H]([C@@H](O)C[C@@]3(C)[C@H]2CC[C@]3(O)C(=O)CO)[C@@]2(C)C=CC(=O)C=C12` [MP, Methylprednisolone], in data set [4] (mean, n=10), the BMD is recorded as 0.281 gm-HA/cm^3, the BV/TV stood at 18.33% and the “Serum PINP” value was 50.17 ng/mL. In data set [4] (femur three-point bending), this compound returned an Energy of 75.67 mJ, a Max power of 82.17 N and a Stiffness of 108.17 N/mm.
As for `O=C(O)c1ccccn1` [Picolonic acid], the “oral absorption: detection in plasma” value in data set [3] was “detected in extract and in extract-treated rat plasma but not in blank rat plasma”.

For the origin of these results see US11304927B2, “Bioactive extract, fraction of Cassia occidentalis and formulation thereof for bone regeneration” (COUNCIL OF SCIENTIFIC AND INDUSTRIAL RESEARCH, priority 2018, dated 2022).
